Values after ≈ are worked out from the molar mass of the structure shown. Active and inactive are the calls of the source. No cut-off for these calls is given here.
What was measured:
Lipid bilayer [1] = test: Binding affinity to DPPC liposomes assessed as change in pre-transition temperature at 1:2 drug to DPPC liposome molar ratio by differential scanning calorimetric analysis
Candida albicans [2] = test: Antifungal activity against Candida albicans ATCC 10231 assessed as ethanol level after 32 hrs by [1H] NMR spectroscopic analysis; type: functional
Lipid bilayer [3] = test: Binding affinity to DPPC liposomes assessed as change in pre-transition temperature at 1:10 drug to DPPC liposome molar ratio by differential scanning calorimetric analysis
Lipid bilayer [4] = test: Binding affinity to DPPC liposomes at 1:2 to 1:10 drug to DPPC liposome molar ratio by [31P] NMR spectroscopic analysis
Candida albicans [5] = test: Antifungal activity against Candida albicans ATCC 10231 assessed as pyruvate level after 18 hrs by [1H] NMR spectroscopic analysis; type: functional
Candida albicans [6] = test: Antifungal activity against Candida albicans ATCC 10231 assessed as acetate level after 32 hrs by [1H] NMR spectroscopic analysis; type: functional
Candida albicans [7] = test: Antifungal activity against Candida albicans ATCC 10231 assessed as acetate level after 24 hrs by [1H] NMR spectroscopic analysis; type: functional
Candida albicans [8] = test: Antifungal activity against Candida albicans ATCC 10231 assessed as ethanol level after 24 hrs by [1H] NMR spectroscopic analysis; type: functional
Lipid bilayer [9] = test: Binding affinity to DPPC liposomes by 2D-NOESY spectroscopic analysis
Lipid bilayer [10] = test: Binding affinity to DPPC liposomes assessed as melting temperature at 1:5 drug to DPPC liposome molar ratio by differential scanning calorimetric analysis
Lipid bilayer [11] = test: Binding affinity to DPPC liposomes at 1:5 drug to DPPC liposome molar ratio by [1H] NMR spectroscopic analysis
Lipid bilayer [12] = test: Binding affinity to DPPC liposomes assessed as melting temperature at 1:2 drug to DPPC liposome molar ratio by differential scanning calorimetric analysis
Candida albicans [13] = test: Antifungal activity against Candida albicans ATCC 10231 assessed as pyruvate level after 24 hrs by [1H] NMR spectroscopic analysis; type: functional
Lipid bilayer [14] = test: Binding affinity to DPPC liposomes at 1:5 drug to DPPC liposome molar ratio by [13C] NMR spectroscopic analysis
Candida albicans [15] = test: Antifungal activity against Candida albicans ATCC 10231 assessed as ethanol level after 18 hrs by [1H] NMR spectroscopic analysis; type: functional
Candida albicans [16] = test: Antifungal activity against Candida albicans ATCC 10231 assessed as acetate level after 18 hrs by [1H] NMR spectroscopic analysis; type: functional
Candida albicans [17] = test: Antifungal activity against Candida albicans ATCC 10231 assessed as pyruvate level after 32 hrs by [1H] NMR spectroscopic analysis; type: functional
Lipid bilayer [18] = test: Binding affinity to DPPC liposomes assessed as melting temperature at 1:10 drug to DPPC liposome molar ratio by differential scanning calorimetric analysis
Lipid bilayer [19] = test: Binding affinity to DPPC liposomes assessed as change in pre-transition temperature at 1:5 drug to DPPC liposome molar ratio by differential scanning calorimetric analysis
Candida albicans [20] = test: Antifungal activity against Candida albicans ATCC 10231 after 48 hrs by tube dilution method; type: functional; conditions: ATCC 10231, 48 h
Candida albicans [21] = test: Antifungal activity against Candida albicans ATCC 10231 after 24 hrs by broth microdilution method; type: functional; conditions: ATCC 10231, 24 h
Lipid bilayer [22] = test: Binding affinity to DPPC liposomes after 2 hrs by double reciprocal plot analysis
Lipid bilayer [23] = test: Binding affinity to DPPC liposomes after 2 hrs by spectrophotometric analysis relative to control

Structure (SMILES)	Activity (Lipid bilayer [1])	Activity (Candida albicans [2]) [µg/mL]	Activity (Lipid bilayer [4])	Activity (Candida albicans [5]) [µg/mL]	Activity (Candida albicans [6]) [µg/mL]	Activity (Candida albicans [7]) [µg/mL]	Activity (Candida albicans [8]) [µg/mL]	Activity (Lipid bilayer [9])	Tm (Lipid bilayer [10]) [°C]	Activity (Lipid bilayer [11])	Tm (Lipid bilayer [12]) [°C]	Activity (Candida albicans [13]) [µg/mL]	Activity (Lipid bilayer [14])	Activity (Candida albicans [15]) [µg/mL]	Activity (Candida albicans [16]) [µg/mL]	Activity (Candida albicans [17]) [µg/mL]	Tm (Lipid bilayer [18]) [°C]	Activity (Lipid bilayer [19])	MIC (Candida albicans [20]) [µg/mL]	MIC (Candida albicans [21]) [µg/mL]	other results
C[C@@H](c1ncncc1F)[C@@](Cn1cncn1)(OC(=O)c1ccc([N+](=O)[O-])cc1)c1ccc(F)cc1F [VORICONAZOLE P-NITRO BENZOATE]	Active	7	Active	5	6	7	7	Active	60	Active	59.6	5	Active	8	8	5	60	Active	8 (≈ 16.1 µM)	7 (≈ 14 µM)	Activity (Lipid bilayer [3]): Active; Kapp (Lipid bilayer [22]): 0.505 M⁻¹
Cc1ccc(C(=O)O[C@@](Cn2cncn2)(c2ccc(F)cc2F)[C@@H](C)c2ncncc2F)cc1 [VORICONAZOLE TOLUATE]	Active	4	Active	4	5	6	5	Active	32.6	Active	32.4	3	Active	5	6	3	34	Active	5 (≈ 10.7 µM)	5 (≈ 10.7 µM)	Activity (Lipid bilayer [3]): Active; Kapp (Lipid bilayer [22]): 0.871 M⁻¹
C[C@@H](c1ncncc1F)[C@@](Cn1cncn1)(OC(=O)c1ccccc1)c1ccc(F)cc1F [VORICONAZOLE BENZOATE]	Active	4	Active	4	4	4	4	Active	39.5	Active	39.5	3	Active	5	6	3	40.9	Active	4 (≈ 8.82 µM)	4 (≈ 8.82 µM)	T (Lipid bilayer [3]): 30.1 °C; Kapp (Lipid bilayer [22]): 1.22 M⁻¹
COc1ccc(C(=O)O[C@@](Cn2cncn2)(c2ccc(F)cc2F)[C@@H](C)c2ncncc2F)cc1 [VORICONAZOLE P-METHOXY BENZOATE]	Active	2	Active	2	2	3	3	Active	39.1	Active	38.3	1	Active	3	4	1	39.2	Active	3 (≈ 6.21 µM)	3 (≈ 6.21 µM)	Activity (Lipid bilayer [3]): Active; Activity (Lipid bilayer [23]): 50%; Kapp (Lipid bilayer [22]): 1.16 M⁻¹
C[C@@H](c1ncncc1F)[C@](O)(Cn1cncn1)c1ccc(F)cc1F [VORICONAZOLE]	Active	1	inactive	1	2	2	1	Active	38.5	Active	37.4	1	Active	2	3	1	38.5	Active	1 (≈ 2.86 µM)	1 (≈ 2.86 µM)	Activity (Lipid bilayer [3]): Active; Kapp (Lipid bilayer [22]): 0.0543 M⁻¹
